Consider one compound from patent US9592223B2, “Small molecule inhibitors of MALT1” (Cornell University, priority 2012, dated 2017).

Data set [1] concerns the target T1, LZ-MALT1 (MALT1 (340-789) fused with a leucine zipper dimerization motif) (Homo sapiens, UniProt Q9UDY8).
T1 construct: His tag (N); made in house; host or cells: E. coli
The data set is described as follows: LZ-MALT1 fluorescence assay (Ac-LRSR-AMC cleavage), screening and concentration response. It counts as biochemical. The note with it: concentration response assay, 0.122 μM to 62.5 μM; read-out: IC50 (biochemical activity, in vitro). From the text: We reasoned that MALT1 small-molecule inhibitors might be useful chemical tools for studying MALT1 biology and treating MALT1 addicted tumors. However, full-length MALT1 and its paracaspase domain (amino acids 340-789) are naturally present in physiological solutions as a monomer, which has very low proteolytic activity. Caspases generally must homodimerize for maximal catalytic activity (Pop et al., 2006; Walker et al., 1994; Yin et al., 2006) and accordingly the recently reported structures of the paracaspase domain of MALT1 in complex with a peptide inhibitor are dimeric (Wiesmann et al., 2012; Yu et al., 2011). […]
Ac-LRSR-AMC was used as substrate and reactions were measured with excitation/emission wavelengths of 360/465 nm. […] The final percent inhibition was calculated with the formula: {[fluorescencetest compound(T2-T1)−fluorescenceneg ctrl(T2−T1)]/[fluorescencepos ctrl(T2−T1)−fluorescenceneg ctrl(T2−T1)]}×100. […]
The screening consisted of a 20 μl reaction in 384-well black plates (Greiner Bio One, Wemmel, Belgium, catalogue #784076) with 100 nM LZ-MALT1, 200 μM Ac-LRSR-AMC, and 12.5 μM test compound in buffer A (20 mM HEPES pH 7.5, 10 mM KCl, 1.5 mM MgCl2, 1 mM EDTA, 1 mM DTT, 0.01% Triton X-100). The reactions were measured with excitation/emission wavelengths of 360/465 nm using Envision Multilabel Reader (Perkin-Elmer, Waltham, Mass.). […]

The subject of data set [2] is HBL-1 cells. Kind of data set: Growth inhibition, ATP-based luminescent assay. The note with it: Homo sapiens, HBL1. It counts as cell-based. As for the experimental part: (§1) Cell proliferation was determined by ATP quantification using a luminescent method (CellTiter-Glo, Promega, Madison, Wis.) and Trypan blue dye-exclusion (Sigma, St. Louis, Mo.). Cell viability in drug-treated cells was normalized to their respective controls (fractional viability) and results are given as 1-fractional viability. CompuSyn software (Biosoft, Cambridge, UK) was used to determine drug concentrations inhibiting fractional growth compared to controls.
(§2) DLBCL cell lines were grown in exponential growth conditions during the 48 hr of treatment. Cell proliferation was determined by ATP quantification using a luminescent method (CellTiter-Glo, Promega, Madison, Wis.) and Trypan blue dye-exclusion (Sigma, St. Louis, Mo.). Luminescence was measured using the Synergy4 microplate reader (BioTek Instruments, Winooski, Vt.). Standard curves for each cell line were calculated by plotting the cell number (determined by the Trypan blue method) against their luminescence values and number of cells was calculated accordingly. Cell viability in drug-treated cells was normalized to their respective controls (fractional viability) and results are given as 1-fractional viability. CompuSyn software (Biosoft, Cambridge, UK) was used to determine the drug concentration that inhibits the growth of cell lines by […]. Experiments were performed in triplicate.

Data set [3] relates to OCI-Ly10 cells. Kind of data set: Growth inhibition, ATP-based luminescent assay. It counts as cell-based. To be noted: Homo sapiens; OCI-Ly10, single dose, 48 hr. As for the experimental part: as §1, §2
Data set [4] deals with OCI-Ly3 cells. The data set is described as follows: Growth inhibition, ATP-based luminescent assay. It counts as cell-based. The note with it: Homo sapiens; OCI-Ly3, single dose, 48 hr. As for the experimental part: as §1, §2
Data set [5] has as its system HBL-1 cells. The data set is described as follows: MI-2 intracellular concentration in HBL-1 cells by LC-MS. It counts as in vitro ADME, human.

Read-outs that look alike come from different tables or passages of the source.

T1 sequence (Q9UDY8 with tags, fused parts or gaps limits assumed): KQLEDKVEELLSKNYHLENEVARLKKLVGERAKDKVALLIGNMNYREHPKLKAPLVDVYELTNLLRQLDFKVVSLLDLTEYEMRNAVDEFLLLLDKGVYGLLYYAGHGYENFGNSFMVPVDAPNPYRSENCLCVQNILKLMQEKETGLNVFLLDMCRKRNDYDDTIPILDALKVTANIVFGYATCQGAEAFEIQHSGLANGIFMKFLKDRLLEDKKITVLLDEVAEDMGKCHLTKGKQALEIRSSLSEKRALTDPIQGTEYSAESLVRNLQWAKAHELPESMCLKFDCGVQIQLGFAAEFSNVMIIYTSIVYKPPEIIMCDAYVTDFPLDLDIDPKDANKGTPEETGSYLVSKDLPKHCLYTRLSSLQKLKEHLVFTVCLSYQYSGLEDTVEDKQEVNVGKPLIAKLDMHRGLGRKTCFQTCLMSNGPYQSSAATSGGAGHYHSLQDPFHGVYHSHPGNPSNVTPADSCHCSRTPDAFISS

`COCCOc1nc(-c2ccc(Cl)c(Cl)c2)n(-c2ccc(NC(=O)CCl)cc2)n1` [MI-2]: the half-inhibitory concentration (IC50) in data set [1] was about 5 µM. For the same compound, the GI50 was 200 nM in data set [2] (HBL-1, single dose, 48 hr, read-out: GI50); 200 nM in data set [2] (HBL-1, read-out: GI50 concentration); 400 nM in data set [3]; 400 nM in data set [4]. For the same compound, the intracellular concentration in data set [5] (0.2 μM treated HBL-1 cells, 2 hr) is 5 µM. Also, in data set [5] (0.2 μM, by 12 hr), the “free drug within the cells” value is “virtually no detectable free MI-2”.

The IC50 is the concentration at which inhibition is half-maximal.
